Assays:
Assay type in all cases: cell-based, human
[1] = tested on: HL-60 cells; assay: Alkaline comet assay, HL-60; conditions: HL-60, 48 h
Method: (§1) Single cell gel electrophoresis (comet assay) was used to detect alkali labile sites, single and double DNA strand breaks, and cross-links induced by genotoxic agents. After electrophoresis and gel staining with 4,6-diamidino-2-phenylindole (DAPI), the released DNA was visible under a fluorescence microscope as a characteristic comet tail. The cells were plated on 24-well plates (20,000 cells/mL) and treated with CLA, CLA-FMOR, CLA-FPIP, or CLA-FPIR at the indicated concentrations for 2, 24, and 48 h at 37 °C. Some cells were preincubated with an ATR kinase inhibitor (VE-821) for 1 h at 37 °C before adding the tested compounds. Next, cells were collected into Eppendorf tubes and rinsed with PBS. Then, cells were suspended in 0.75% low melting point (LMP) agarose dissolved in PBS (pH 7.4) and placed on microscope slides precoated with 0.5% normal melting point (NMP) agarose. […] The slides were stored in a wet chamber at 4 °C and analyzed under a fluorescence microscope. Fifty randomly selected cells from each slide were measured using image analysis (Nikon, Japan) attached to a COHU 4910 video camera, which was equipped with a UV-1 filter block consisting of an excitation filter (359 nm) and a barrier filter (461 nm) connected to the image analysis system Lucia-Comet v. […] In the samples preincubated with VE-821, the level of DNA damage associated with the ATR kinase was determined.

[2] = tested on: γH2AX in HL-60 cells; assay: H2AX (phospho S139) In-Cell ELISA, HL-60; conditions: HL-60, 48 h, versus control cells
Method: The level H2AX protein phosphorylated Ser139 was measured in tested leukemia cells by using of In-Cell ELISA, ICE assay kit. The cells were seeded on 96-well plates (100 × 10^3/well) and 48 h later, incubated with the appropriate compounds. In some experimental variants, cells were preincubated for 1 h with VE-821 (10 µM). The cells were fixed by adding a final concentration of 4% paraformaldehyde solution (10 min, room temperature). After 2 h of Block Solution incubation, cells were treated with a highly specific antibody. A rabbit monoclonal antibody specific to H2AX (phospho S139) was used (at 1:100, 2 h incubation). Next Secondary Antibody Solution (at 1:1000) were added to the cells. The measurements were obtained on a fluorescence plate reader at an excitation wavelength of 680 nm and emission at 694 nm. The cells were PBS washed and 100 µL of Janus Green Stain was added to each well of the plate (5 min., room temperature). The data were collected at excitation wavelength of 750 nm and emission at 800 nm channel (Fluoroskan Cary Eclipse). Antibody signal intensity was normalized to the total amount using Janus Green cell-stain.

[3] = tested on: dCK in HL-60 cells; assay: Deoxycytidine kinase activity, HL-60; conditions: HL-60, 24 h incubation
Method: Deoxycytidine kinase activity was measured in accordance with the manufacturer’s protocol. The cells, at final concentration were plated at 1 × 10^6 cells per 24-well plates and cultured with the tested compounds for 24 h. Some cells were preincubated with an ATR kinase inhibitor (VE-821) for 1 h at 37 °C before adding the tested compounds. After drug treatment, the cells were washed with PBS and resuspended in an ice-cold cytosol extraction buffer containing 1 mM phenylmethylsulfonyl fluoride (PMSF) and a protease inhibitor cocktail. The cell lysate was centrifuged at 10,000 × g for 30 min at 4 °C. The protein concentration was determined using the Bradford method. The supernatant (cytosolic fraction) was collected and stored at −80 °C. The clarified cytoplasm extracts, dCK standards, and blank control were added to the appropriate microtiter plate wells with a biotin-conjugated polyclonal antibody prepared specifically for dCK. Avidin conjugated to horseradish peroxidase (HRP) was added to each microplate well and incubated. Then, a TMB substrate solution was added to the plate. […] The enzyme-substrate reaction was terminated by addition of a sulfuric acid solution. The color change was measured spectrophotometrically at a wavelength of 450 nm using a microplate reader (BioTek).

[4] = tested on: caspase-3/7 in MOLT-4 cells; assay: Caspase 3/7 assay, MOLT-4; conditions: MOLT-4, 48 h
Method: (§2) The activities of caspases-3 and −7 were estimated with CellEvent™ Caspse-3/7 Green Detection Reagent (Thermo Fisher Scientific) according to the manufacturer’s protocol. The cells were seeded on 96-well plates (15 × 10^3/ well) and 24 h later, incubated with the appropriate drugs for 24 h or 48 h. The cells were fixed by adding a final concentration of 4% paraformaldehyde solution (10 min, room temperature). Cells were labeled with CellEvent™Caspase-3/7 Green Detection Reagent (5 µM), followed by Hoechst 33342 (5 µg/ml) for 15 minutes in complete medium3. Caspase-3/7 Green Detection Reagent was diluted into PBS with 5% FBS to avoid fluorescence background. […] Fluorescence intensity was measured using a Fluoroskan Ascent FL plate reader (Labsystem, Sweden). Cysteine protease activity was expressed as a ratio of fluorescence of the drug-treated samples to the corresponding untreated controls (taken as 100%). In some experimental variants, cells were preincubated for 1 h with VE-821 (10 µM) or Z-FA-FMK (caspas-3 inhibitor, 0.5 µM) to confirm that the fluorescence observed in both control and drug-treated cells was due to the presence of caspase-3/7 in samples. […]

[5] = tested on: MOLT-4 cells; assay: Comet assay with proteinase K post-treatment (DNA-protein cross-links), MOLT-4; conditions: MOLT-4, 24 h
Method: as §1, with “determined. […]” for “determined.”

[6] = tested on: caspase-3/7 in HL-60 cells; assay: Caspase 3/7 assay, HL-60; conditions: HL-60, 48 h
Method: The activities of caspases-3 and −7 were estimated with CellEvent™ Caspse-3/7 Green Detection Reagent (Thermo Fisher Scientific) according to the manufacturer’s protocol. The cells were seeded on 96-well plates (15 × 10^3/ well) and 24 h later, incubated with the appropriate drugs for 24 h or 48 h. The cells were fixed by adding a final concentration of 4% paraformaldehyde solution (10 min, room temperature). Cells were labeled with CellEvent™Caspase-3/7 Green Detection Reagent (5 µM), followed by Hoechst 33342 (5 µg/ml) for 15 minutes in complete medium3. Caspase-3/7 Green Detection Reagent was diluted into PBS with 5% FBS to avoid fluorescence background. After activation of caspase-3/7 in apoptotic cells, the DEVD peptide was cleaved, enabling the dye to bind DNA, which produced a bright, fluorogenic response with absorption/emission maxima of 502/530 nm according with manufacture protocol. Fluorescence intensity was measured using a Fluoroskan Ascent FL plate reader (Labsystem, Sweden). Cysteine protease activity was expressed as a ratio of fluorescence of the drug-treated samples to the corresponding untreated controls (taken as 100%). In some experimental variants, cells were preincubated for 1 h with VE-821 (10 µM) or Z-FA-FMK (caspas-3 inhibitor, 0.5 µM) to confirm that the fluorescence observed in both control and drug-treated cells was due to the presence of caspase-3/7 in samples. The caspase 3/7 signal was normalized to the Hoechst 33342 staining intensity to account for differences in cell seeding density (description in: Intracellular calcium assay section).

[7] = tested on: caspase-3/7 in THP-1 cells; assay: Caspase 3/7 assay, THP-1; conditions: THP-1, 48 h
Method: as §2

**Q.** For `OC[C@H]1O[C@@H](n2cnc3c(N=CN4CCOCC4)nc(Cl)nc32)C[C@@H]1O` [CLA-FMOR, [6-deamino-6-(N′, N′-3′-oxa-1′, 5′-pentamethyleneformamidine)] cladribine], which “DNA damage relative to that induced by the unmodified drug” value [1] is on record?
**A.** two-fold higher

**Q.** And the “DNA fragmentation, percentage of the DNA in the comet tail” value ([1]; 130 nM)?
**A.** 24%

**Q.** What about the “increase in γH2AX level” value [2] of the same compound?
**A.** ~ 2.4 fold

**Q.** And the dCK activity [3]?
**A.** highest dCK activity

**Q.** And the caspase-3/7 level [4]?
**A.** highest changes

**Q.** What about the “percentage of DNA in the comet tail after proteinase K” value [5] of the same compound?
**A.** increase in the percentage of DNA in the comet tail

**Q.** `OC[C@H]1O[C@@H](n2cnc3c(N=CN4CCCC4)nc(Cl)nc32)C[C@@H]1O` [CLA-FPIR, [6-deamino-6-(N′, N′-l′, 4′-tetramethyleneformamidino)] cladribine] was tested. Which caspase-3/7 level [6] did it give?
**A.** highest changes

**Q.** What about the caspase-3/7 level [7] of the same compound?
**A.** highest changes

Reference: PMC6773697, “Antileukemic activity of novel adenosine derivatives” (Scientific Reports, 2019)
